Experimental data taken from patent US20180235993A1 (priority 2000, published 2018).
pEC50, pIC50: −log10 of the molar value. Read-outs that look alike come from different tables or passages of the source.

What was measured:
[1] = system: BVDV (strain NADL); test: Cell Protection Assay (CPA); assay type: cell-based, Bovine Viral Diarrhea virus
Procedure: The assay was performed essentially as described by Baginski, S. G.; Pevear, D. C.; Seipel, M.; Sun, S. C. C.; Benetatos, C. A.; Chunduru, S. K.; Rice, C. M. and M. S. Collett “Mechanism of action of a pestivirus antiviral compound” PNAS USA 2000, 97(14), 7981-7986. MDBK cells (ATCC) were seeded onto 96-well culture plates (4,000 cells per well) 24 hours before use. After infection with BVDV (strain NADL, ATCC) at a multiplicity of infection (MOI) of 0.02 plaque forming units (PFU) per cell, serial dilutions of test compounds were added to both infected and uninfected cells in a final concentration of 0.5% DMSO in growth medium. Each dilution was tested in quadruplicate. Cell densities and virus inocula were adjusted to ensure continuous cell growth throughout the experiment and to achieve more than 90% virus-induced cell destruction in the untreated controls after four days post-infection. After four days, plates were fixed with 50% TCA and stained with sulforhodamine B. The optical density of the wells was read in a microplate reader at 550 nm. The 50% effective concentration (EC50) values were defined as the compound concentration that achieved 50% reduction of cytopathic effect of the virus. FIGS. 4 and 5 provide a graphical illustration of the methodology used to arrive at the 50% effective concentration (EC50) values for β-D-2′-CH3-riboG and ribavirin. FIG. 6 compares the results of the CPA for β-D-2′-CH3-riboG, β-D-2′-CH3-riboC, riboU, β-D-2′-CH3-riboA and ribavirin

[2] = system: BVDV; test: Plaque Reduction Assay; assay type: cell-based, Bovine Viral Diarrhea virus
Procedure: For each compound the effective concentration was determined in duplicate 24-well plates by plaque reduction assays. Cell monolayers were infected with 100 PFU/well of virus. Then, serial dilutions of test compounds in MEM supplemented with 2% inactivated serum and 0.75% of methyl cellulose were added to the monolayers. Cultures were further incubated at 37° C. for 3 days, then fixed with 50% ethanol and 0.8% Crystal Violet, washed and air-dried. FIG. 7 is a graphical illustration of the results from the Plaque Reduction Assay. FIG. 8 is an image of BVDV plaque formation in the presence of increasing concentrations of β-D-2′-CH3-riboU.

[3] = system: BVDV (NADL strain); test: Yield Reduction Assay; assay type: cell-based, Bovine Viral Diarrhea virus
Procedure: The assay was performed as described by Baginski, S. G.; Pevear, D. C.; Seipel, M.; Sun, S. C. C.; Benetatos, C. A.; Chunduru, S. K.; Rice, C. M. and M. S. Collett “Mechanism of action of a pestivirus antiviral compound” PNAS USA 2000, 97(14), 7981-7986, with minor modifications. Briefly, MDBK cells were seeded onto 24-well plates (2×10^5 cells per well) 24 hours before infection with BVDV (NADL strain) at a multiplicity of infection (MOI) of 0.1 PFU per cell. Serial dilutions of test compounds were added to cells in a final concentration of 0.5% DMSO in growth medium. Each dilution was tested in triplicate. After three days, cell cultures (cell monolayers and supernatants) were lysed by three freeze-thaw cycles, and virus yield was quantified by plaque assay. Briefly, MDBK cells were seeded onto 6-well plates (5×10^5 cells per well) 24 h before use. Cells were inoculated with 0.2 mL of test lysates for 1 hour, washed and overlaid with 0.5% agarose in growth medium. After 3 days, cell monolayers were fixed with 3.5% formaldehyde and stained with 1% crystal violet (w/v in 50% ethanol) to visualize plaques. FIG. 9 is a graphical illustration of the results from the Yield Reduction Assay. FIG. 8 is an image of BVDV yield reduction in the presence of increasing concentrations of β-D-2′-CH3-riboC.

[4] = system: YFV-17D; test: microbe, parasite or virus in culture; assay type: cell-based, Yellow fever virus vaccine strain 17D
[5] = in vitro
[6] = system: Human bone marrow cells (CFU-GM); test: Human bone marrow toxicity, CFU-GM clonogenic assay; assay type: cell-based; settings: read-out: IC50 CFU-GM
Source text: (§1) Human bone marrow cells were collected from normal healthy volunteers and the mononuclear population was separated by Ficoll-Hypaque gradient centrifugation as described previously by Sommadossi J-P, Carlisle R. “Toxicity of 3′-azido-3′-deoxythymidine and 9-(1,3-dihydroxy-2-propoxymethyl)guanine for normal human hematopoietic progenitor cells in vitro” Antimicrobial Agents and Chemotherapy 1987; 31:452-454; and Sommadossi J-P, Schinazi R F, Chu C K, Xie M-Y. “Comparison of cytotoxicity of the (−)- and (+)-enantiomer of 2′,3′-dideoxy-3′-thiacytidine in normal human bone marrow progenitor cells” Biochemical Pharmacology 1992; 44:1921-1925. The culture assays for CFU-GM and BFU-E were performed using a bilayer soft agar or methylcellulose method. Drugs were diluted in tissue culture medium and filtered. After 14 to 18 days at 37° C. in a humidified atmosphere of 5% CO2 in air, colonies of greater than 50 cells were counted using an inverted microscope. The results in Table 4 are presented as the percent inhibition of colony formation in the presence of drug compared to solvent control cultures.

[7] = system: Human bone marrow cells (BFU-E); test: Human bone marrow toxicity, BFU-E clonogenic assay; assay type: cell-based; settings: human bone marrow colony formation, 14 to 18 days
Source text: as §1

[8] = Cytotoxicity assay (sulforhodamine B, CC50), Human Hepatoma; assay type: cell-based; settings: human; for CC50 at 4 days: 4 days incubation; for EC50 at 4 days: Table 13
Procedure: (§2) Cells were seeded at a rate of between 5×10^3 and 5×10^4/well into 96-well plates in growth medium overnight at 37° C. in a humidified CO2 (5%) atmosphere. New growth medium containing serial dilutions of the drugs was then added. After incubation for 4 days, cultures were fixed in 50% TCA and stained with sulforhodamineB. The optical density was read at 550 nm. The cytotoxic concentration was expressed as the concentration required to reduce the cell number by 50% (CC50).

[9] = in vitro; settings: cattle
[10] = system: PICO (Cosxackie B1 and Polio Sabin); test: organism not typed; assay type: cell-based; settings: Vero, read-out: Comparative Antiviral Activity EC50 PICO
[11] = Cytotoxicity assay (sulforhodamine B, CC50), MDBK; assay type: cell-based; settings: cattle; MDBK cells, 4 days incubation
Procedure: as §2

[12] = system: HIV-1; test: Comparative antiviral activity (EC50), HIV-1; assay type: cell-based; settings: Human immunodeficiency virus 1; Table 11
[13] = system: Bovine Viral Diarrhea virus (BVDV); test: microbe, parasite or virus in culture; assay type: cell-based
[14] = system: VSV; test: microbe, parasite or virus in culture; assay type: cell-based; settings: Vesicular stomatitis virus, read-out: Comparative Antiviral Activity EC50 VSV
[15] = system: MDBK cells
[16] = system: various cell systems
[17] = system: HepG2 cells; test: Mitochondria toxicity assay (L-lactic acid assay); assay type: cell-based; settings: 4 day drug exposure
Procedure: HepG2 cells were cultured in 12-well plates as described above and exposed to various concentrations of drugs as taught by Pan-Zhou X-R, Cui L, Zhou X-J, Sommadossi J-P, Darley-Usmer V M. “Differential effects of antiretroviral nucleoside analogs on mitochondrial function in HepG2 cells” Antimicrob Agents Chemother 2000; 44:496-503. Lactic acid levels in the culture medium after 4 day drug exposure was measured using a Boehringer lactic acid assay kit. Lactic acid levels were normalized by cell number as measured by hemocytometer count.

[18] = Bovine viral diarrhea virus isolates and strains, 96 h, MDBK cells infected with BVDV, 50% reduction of cytopathic effect, four days, read-out: EC50
[19] = Bovine viral diarrhea virus isolates and strains, Table 13, BVDV, read-out: Cell Protection (EC50)
[20] = Bovine viral diarrhea virus isolates and strains, Table 13, BVDV, 90% virus suppression, read-out: Plaque Reduction (EC90)
[21] = Bovine viral diarrhea virus isolates and strains, Table 13, BVDV
[22] = Yellow fever virus, read-out: Comparative Antiviral Activity EC50 YFV
[23] = Huh7 cells (human hepatoma), Huh7 cells
[24] = Bovine viral diarrhea virus isolates and strains, read-out: Comparative Antiviral Activity EC50 BVDV

| Compound | pEC50 [1, 18] | pEC50 [1, 19] | EC90 [2, 20] [µM] | Yield Reduction 6 log10 reduction (μM) [3] | EC90 [3, 21] [µM] | pEC50 [4, 22] | CC50 ([5]; African green monkey) [µM] | CC50 ([5]; hamster) [µM] | pIC50 ([6]; Homo sapiens, CFU-GM) | pIC50 ([7]; Bone marrow cell) | EC50 at 4 days [8, 23] [µM] | CC50 [9] [µM] | pEC50 [10] | CC50 [5] [µM] | CC50 ([5]; human) [µM] | pEC50 [12] | pEC50 [13, 24] | pEC50 [14] | Conc. for 6-log Reduction [3] [μM] | other results |
| --- | --- | --- | --- | --- | --- | --- | --- | --- | --- | --- | --- | --- | --- | --- | --- | --- | --- | --- | --- | --- |
| NC(=O)c1ncn([C@@H]2O[C@H](CO)[C@@H](O)[C@H]2O)n1 [Ribavirin, reference compound] | < 5.52 | < 5.52 | > 200 | toxic | > 20 | 4.52 | 11 | 50 | ~5.30 | ~6.00 | 20 | 5 | < 4.52 |  |  |  |  |  |  | CC50 at 4 days ([8]; HepG2 cells (human hepatoma), HepG2 cells, read-out: CC50 HepG2): 150 µM; CC50 at 4 days ([8]; Huh7 cells (human hepatoma), Huh7 cells, read-out: CC50 Huh7): 25 µM; CC50 at 4 days [11]: 5 µM |
| C[C@@]1(n2cnc3c(N)ncnc32)O[C@H](CO)[C@H](O)C1O (stereo partly drawn) [β-D-1′-CH3-riboA, 1′-C-methylriboadenine] |  |  |  |  |  | 5.15 | > 100 | 200 |  |  |  |  | 4.29 | > 100 | 18 | < 4.74 | 5.00 | < 4.00 |  |  |
| CC1(O)[C@@H](O)[C@@H](CO)O[C@H]1n1cnc2c(N)ncnc21 (stereo partly drawn) [β-D-2′-CH3-riboA, 2′-C-methylriboadenine] | 5.70 | 5.70 | < 3 | 9 μM | < 2 | 6.70 | 22 | 22 | < 4.00 | < 4.00 | 50 | 20 | 5.30 | 75 | 6.6 | < 5.18 | 7.00 | < 4.00 | 9 | EC90 ([2]; Bovine viral diarrhea virus isolates and strains, 72 h, concentration to obtain 90% virus suppression, 3 days, read-out: EC90): < 3 µM |
| C[C@@]1(O)[C@H](O)[C@@H](CO)O[C@H]1n1ccc(N)nc1=O [β-D-2′-CH3-riboC] |  |  |  | 20 μM |  |  |  |  |  |  |  |  |  |  |  |  |  |  | 20 | CC50 [15]: 100 µM; pEC50 ([1]; read-out: Cell Protection (EC50)): 5.70; pEC50 ([1]; read-out: EC50): 5.70; EC90 ([2]; read-out: EC90): < 9 µM; EC90 ([2]; read-out: Plaque Reduction (EC90)): < 9 µM; CC50 [16]: > 100 µM; CC50 ([16]; read-out: YFV CC50, Table 12, reduce the viability of cells by 50%, YFV-BHK system): > 100 µM; EC90 [3]: < 4 µM; pEC50 ([4]; Table 12, reduce the plaque number by 50%, YFV-BHK, read-out: YFV EC50): 4.15; pIC50 ([6]; human bone marrow colony formation, 14 to 18 days): < 5.00; lactate ([17]; Conc. 1 μM): 2.52 mg/10^6 cell; lactate % of Control ([17]; Conc. 1 μM): 115.3%; lactate ([17]; Conc. 10 μM): 2.36 mg/10^6 cell; lactate % of Control ([17]; Conc. 10 μM): 107.9%; lactate ([17]; Conc. 50 μM): 2.26 mg/10^6 cell; lactate % of Control ([17]; Conc. 50 μM): 103.4%; lactate ([17]; Conc. 100 μM): 2.21 mg/10^6 cell; lactate % of Control ([17]; Conc. 100 μM): 101.2%; pIC50 [7]: < 5.00; pEC50 ([13]; read-out: BVDV EC50): 5.43 |
